From the NIST ThermoML archive (doi:10.1016/j.jct.2015.08.010)
± gives the expanded uncertainty stated by the source.

Assay: xn = mol fraction of the nth substance listed
Conditions: 100 kPa, Liquid; for viscosity: Falling or rolling sphere viscometry; for mass density: Vibrating tube method

## C1CCC2=NCCC[NH+]2CC1.c1c[n-]cn1 [1,8-diazabicyclo[5.4.0]undec-7-enium imidazolide] + O
293.15 K, x1 = 0.0298
  viscosity: 2.845 ± 0.12 mPa·s
  mass density: 1026.99 ± 4.2 kg/m3
293.15 K, x1 = 0.0698
  viscosity: 8.167 ± 0.24 mPa·s
  mass density: 1048.57 ± 4.2 kg/m3
293.15 K, x1 = 0.0998
  viscosity: 14.13 ± 0.38 mPa·s
  mass density: 1057.33 ± 4.2 kg/m3
293.15 K, x1 = 0.1875
  viscosity: 34.98 ± 0.8 mPa·s
  mass density: 1067.15 ± 4.3 kg/m3
293.15 K, x1 = 0.2994
  viscosity: 60.57 ± 1.3 mPa·s
  mass density: 1067.1 ± 4.3 kg/m3
293.15 K, x1 = 0.444
  viscosity: 72.41 ± 1.7 mPa·s
  mass density: 1063.55 ± 4.3 kg/m3
293.15 K, x1 = 0.5989
  viscosity: 69.49 ± 1.7 mPa·s
  mass density: 1059.62 ± 4.3 kg/m3
293.15 K, x1 = 0.7516
  viscosity: 63.94 ± 1.5 mPa·s
  mass density: 1056.72 ± 4.3 kg/m3
293.15 K, x1 = 0.8728
  viscosity: 55.45 ± 1.3 mPa·s
  mass density: 1055.11 ± 4.3 kg/m3
293.15 K, x1 = 1
  viscosity: 47.82 ± 1.2 mPa·s
  mass density: 1053.63 ± 4.3 kg/m3
298.15 K, x1 = 0.0298
  viscosity: 2.428 ± 0.1 mPa·s
  mass density: 1024.52 ± 4.2 kg/m3
298.15 K, x1 = 0.0698
  viscosity: 6.74 ± 0.19 mPa·s
  mass density: 1045.19 ± 4.2 kg/m3
298.15 K, x1 = 0.0998
  viscosity: 11.17 ± 0.29 mPa·s
  mass density: 1053.65 ± 4.2 kg/m3
298.15 K, x1 = 0.1875
  viscosity: 25.84 ± 0.59 mPa·s
  mass density: 1063.22 ± 4.3 kg/m3
298.15 K, x1 = 0.2994
  viscosity: 42.65 ± 0.97 mPa·s
  mass density: 1063.15 ± 4.3 kg/m3
298.15 K, x1 = 0.444
  viscosity: 51.28 ± 1.1 mPa·s
  mass density: 1059.63 ± 4.2 kg/m3
298.15 K, x1 = 0.5989
  viscosity: 49.75 ± 1.2 mPa·s
  mass density: 1055.73 ± 4.2 kg/m3
298.15 K, x1 = 0.7516
  viscosity: 44.98 ± 1.1 mPa·s
  mass density: 1052.85 ± 4.2 kg/m3
298.15 K, x1 = 0.8728
  viscosity: 39.57 ± 0.95 mPa·s
  mass density: 1051.25 ± 4.3 kg/m3
298.15 K, x1 = 1
  viscosity: 34.94 ± 0.85 mPa·s
  mass density: 1049.78 ± 4.3 kg/m3
303.15 K, x1 = 0.0298
  viscosity: 2.096 ± 0.086 mPa·s
  mass density: 1021.91 ± 4.1 kg/m3
303.15 K, x1 = 0.0698
  viscosity: 5.761 ± 0.16 mPa·s
  mass density: 1041.75 ± 4.2 kg/m3
303.15 K, x1 = 0.0998
  viscosity: 9.019 ± 0.23 mPa·s
  mass density: 1050.01 ± 4.2 kg/m3
303.15 K, x1 = 0.1875
  viscosity: 19.66 ± 0.45 mPa·s
  mass density: 1059.26 ± 4.2 kg/m3
303.15 K, x1 = 0.2994
  viscosity: 30.99 ± 0.7 mPa·s
  mass density: 1059.2 ± 4.2 kg/m3
303.15 K, x1 = 0.444
  viscosity: 37.8 ± 0.85 mPa·s
  mass density: 1055.71 ± 4.2 kg/m3
303.15 K, x1 = 0.5989
  viscosity: 36.33 ± 0.84 mPa·s
  mass density: 1051.85 ± 4.2 kg/m3
303.15 K, x1 = 0.7516
  viscosity: 32.9 ± 0.77 mPa·s
  mass density: 1048.97 ± 4.2 kg/m3
303.15 K, x1 = 0.8728
  viscosity: 29.31 ± 0.69 mPa·s
  mass density: 1047.41 ± 4.2 kg/m3
303.15 K, x1 = 1
  viscosity: 26.36 ± 0.64 mPa·s
  mass density: 1045.94 ± 4.3 kg/m3
308.15 K, x1 = 0.0298
  viscosity: 1.835 ± 0.072 mPa·s
  mass density: 1019.17 ± 4.1 kg/m3
308.15 K, x1 = 0.0698
  viscosity: 4.854 ± 0.13 mPa·s
  mass density: 1038.24 ± 4.2 kg/m3
308.15 K, x1 = 0.0998
  viscosity: 7.406 ± 0.18 mPa·s
  mass density: 1046.13 ± 4.2 kg/m3
308.15 K, x1 = 0.1875
  viscosity: 15.37 ± 0.35 mPa·s
  mass density: 1055.28 ± 4.2 kg/m3
308.15 K, x1 = 0.2994
  viscosity: 23.32 ± 0.52 mPa·s
  mass density: 1055.23 ± 4.2 kg/m3
308.15 K, x1 = 0.444
  viscosity: 28.37 ± 0.64 mPa·s
  mass density: 1051.79 ± 4.2 kg/m3
308.15 K, x1 = 0.5989
  viscosity: 27.13 ± 0.62 mPa·s
  mass density: 1047.97 ± 4.2 kg/m3
308.15 K, x1 = 0.7516
  viscosity: 24.83 ± 0.58 mPa·s
  mass density: 1045.08 ± 4.2 kg/m3
308.15 K, x1 = 0.8728
  viscosity: 22.6 ± 0.53 mPa·s
  mass density: 1043.56 ± 4.2 kg/m3
308.15 K, x1 = 1
  viscosity: 20.5 ± 0.49 mPa·s
  mass density: 1042.11 ± 4.2 kg/m3
313.15 K, x1 = 0.0298
  viscosity: 1.614 ± 0.06 mPa·s
  mass density: 1016.33 ± 4.1 kg/m3
313.15 K, x1 = 0.0698
  viscosity: 4.071 ± 0.11 mPa·s
  mass density: 1034.66 ± 4.2 kg/m3
313.15 K, x1 = 0.0998
  viscosity: 6.217 ± 0.15 mPa·s
  mass density: 1042.33 ± 4.2 kg/m3
313.15 K, x1 = 0.1875
  viscosity: 12.31 ± 0.28 mPa·s
  mass density: 1051.28 ± 4.2 kg/m3
313.15 K, x1 = 0.2994
  viscosity: 18.12 ± 0.41 mPa·s
  mass density: 1051.26 ± 4.2 kg/m3
313.15 K, x1 = 0.444
  viscosity: 21.76 ± 0.5 mPa·s
  mass density: 1047.79 ± 4.2 kg/m3
313.15 K, x1 = 0.5989
  viscosity: 20.87 ± 0.48 mPa·s
  mass density: 1044.1 ± 4.2 kg/m3
313.15 K, x1 = 0.7516
  viscosity: 19.33 ± 0.45 mPa·s
  mass density: 1041.21 ± 4.2 kg/m3
313.15 K, x1 = 0.8728
  viscosity: 17.88 ± 0.42 mPa·s
  mass density: 1039.73 ± 4.2 kg/m3
313.15 K, x1 = 1
  viscosity: 16.28 ± 0.39 mPa·s
  mass density: 1038.28 ± 4.2 kg/m3
